Experimental data taken from patent US7576085B2, “Imidazopyrazines as cyclin dependent kinase inhibitors” (Schering Corporation, priority 2002, dated 2009).

Assays:
[1] = molecular target: T1, CDK2 (cyclin A or cyclin E) (Homo sapiens, UniProt P24941); experiment: CDK2 in vitro kinase assay (cyclin A or cyclin E dependent), SPA with biotinylated Histone H1 peptide; type: biochemical; details: for IC50: CDK2 with cyclin A or cyclin E, 33P-ATP SPA, 1 hour at room temperature; for inhibition at 0.05 µg/mL: compound at 0.05 ug/mL, read-out: % INH @ 0.05 ug/mL; for inhibition at 0.5 µg/mL: compound at 0.5 ug/mL, read-out: % INH @ 0.5 ug/mL
T1 construct: The expressed protein was approximately 34 kDa in size; made in house; host or cells: SF9 insect cells (recombinant baculovirus, pFASTBAC)

melting point [°C] | SMILES | IC50 [1] [µM] | further results
177 to 179 | Brc1cnc2c(NCCc3ccncc3)nc(-c3ccccc3)cn12 | – | –
145 to 146 | Brc1cnc2c(NC3CCCCC3)nc(-c3ccccc3)cn12 | – | –
204 to 206 | Ic1cnc2c(NCc3cccnc3)nc(-c3ccccc3)cn12 | – | –
175 to 177 | O=C(c1cccc(C(F)(F)F)c1)N1CCC(Nc2nc(-c3ccccc3Cl)cn3c(Br)cnc23)CC1 | – | –
162 to 164 | Clc1ccccc1-c1cn2c(I)cnc2c(NCc2ccncc2)n1 | – | –
169 to 170 | Brc1cnc2c(Nc3ccccc3)nc(-c3ccccc3)cn12 | – | –
152 to 154 | Cc1cnc2c(NCc3ccccc3)nccn12 | – | –
130 to 132 | Cc1cnc2c(NCCc3ccncc3)nccn12 | – | –
104 to 105 | COCCNc1nccn2c(C)cnc12 | – | –
186 to 188 | Cc1cnc2c(NC(c3ccccc3)c3ccccc3)nccn12 | – | –
143 to 145 | Cc1cnc2c(NCc3cccnc3)nccn12 | – | –
– | Clc1ccccc1-c1cn2c(Br)cnc2c(NCc2ccncc2)n1 | 0.49 | –
– | Clc1ccccc1-c1cn2c(Br)cnc2c(NCc2cccnc2)n1 | 0.24 | inhibition at 0.05 µg/mL [1]: 47.4%; inhibition at 0.5 µg/mL [1]: 88.6%
– | Clc1ccccc1-c1cn2c(I)cnc2c(NCc2cccnc2)n1 | 0.23 | –
– | c1ccc(-c2cn3c(-c4ccccc4)cnc3c(NCc3cccnc3)n2)cc1 | 6.7 | –
– | FC(F)(F)c1ccc(CNc2nc(-c3ccccc3)cn3c(Br)cnc23)cn1 | 4.55 | –
– | CC(=O)c1cnc2c(NCc3cccnc3)nc(-c3ccccc3)cn12 | 4.7 | –
– | CC(CO)Nc1nc(-c2ccccc2Cl)cn2c(Br)cnc12 (stereo not shown) | 0.2 | inhibition at 0.05 µg/mL [1]: 63%; inhibition at 0.5 µg/mL [1]: 92.7%
– | COCCCNc1nc(-c2ccccc2Cl)cn2c(Br)cnc12 | – | inhibition at 0.05 µg/mL [1]: 30.7%; inhibition at 0.5 µg/mL [1]: 71.5%
– | Clc1ccccc1-c1cn2c(Br)cnc2c(NCCCn2cccc2)n1 | – | inhibition at 0.05 µg/mL [1]: 42.2%; inhibition at 0.5 µg/mL [1]: 48.8%
– | Clc1ccccc1-c1cn2c(Br)cnc2c(NCCCn2ccnc2)n1 | – | inhibition at 0.05 µg/mL [1]: 37.5%; inhibition at 0.5 µg/mL [1]: 29.4%
– | O=C1CCCN1CCCNc1nc(-c2ccccc2Cl)cn2c(Br)cnc12 | – | inhibition at 0.05 µg/mL [1]: 30.7%; inhibition at 0.5 µg/mL [1]: 67.8%
– | Cc1cnc2c(Nc3ccccc3)nccn12 [drawing 711] | 15 | –
– | Cc1cnc2c(NCc3ccncc3)nccn12 [drawing 712] | 22.5 | –
– | Brc1cnc2c(NCCc3cccnc3)nc(-c3ccccc3)cn12 [drawing 713] | 4.18 | –
– | Ic1cnc2c(NCc3ccncc3)nc(-c3ccccc3)cn12 [drawing 714] | 0.53 | –
– | Clc1ccccc1-c1cn2c(Cl)cnc2c(NCc2cccnc2)n1 [drawing 718] | 0.43 | –

SMILES | melting point [°C] | IC50 [1] [µM] | further results
Brc1cnc2c(NCCc3cccnc3)nc(-c3ccccc3)cn12 | 120 to 122 | – | –
Ic1cnc2c(NCc3ccncc3)nc(-c3ccccc3)cn12 | 139 to 141 | – | –
Clc1ccccc1-c1cn2c(Cl)cnc2c(NCc2cccnc2)n1 | 127 to 129 | – | –
Cc1cnc2c(Nc3ccccc3)nccn12 | 182 to 184 | – | –
Cc1cnc2c(NCc3ccncc3)nccn12 | 183 to 185 | – | –
